According to patent publication US4755514A, “Phenylpyrazine derivatives and thrombolytic agent” (Suntory Limited, priority 1985, dated 1988):

Key:
[1] = tested on: pulmonary embolism induced by collagen; experiment: prevention of pulmonary embolic death in mice (collagen injection); format: in vivo, Male ddY mice; conditions: 300 mg/kg peroral, 3 h before collagen i.v.; control: 6/6 died
Protocol: The following tests were conducted to evaluate the effect of the claimed compounds in the prevention of pulmonary embolic death in mice.
Each of the compounds being tested was suspended in 0.5% carboxymethyl cellulose and administered perorally at a dosage of 300 mg/kg (0.1 ml/10 g body weight).
Male ddY mice weighing 18-20 g were subjected to the test after being starved overnight.
Three hours after oral administration of a selected test compound to the mice, 30 mg/kg of adenosine-5'-diphosphate sodium salt (Sigma Chemical Co., Grade IX) or collagen was injected through their tail veins. The number of mice which died of pulmonary embolism within 3 minutes after the intravenous injections was counted.
The adenosine-5'-diphosphate sodium salt (ADP 2Na) was in the form of a solution in physiological saline at a concentration of 300 mg/10 ml. The collagen was administered in the form of a solution which was prepared by the following procedure: 25 mg of collagen was uniformly sonicated in a solution containing 25 mmol of tris-HCl and 130 mmol of sodium chloride (pH: 7.3), and the resultant dispersion was incubated at 37° C. for 45 minutes to form a polymer (after incubation, the collagen solution was kept in ice-water until it was used).
As a control, 0.5% carboxymethyl cellulose (10 ml/kg) was administered through tail veins.

[2] = tested on: pulmonary embolism induced by adenosine-5'-diphosphate sodium salt (ADP 2Na); experiment: prevention of pulmonary embolic death in mice (ADP 2Na injection); format: in vivo, Male ddY mice; conditions: 300 mg/kg peroral; for Number of animals dying within 3 minutes after injection/Number of animals in test, ADP 2Na: 3 h before 30 mg/kg ADP 2Na i.v., control: 6/6 died; for thrombolytic effects compared with Ticlopidine: from Table 1 (ADP 2Na and collagen), mice
[3] = tested on: mice; parameters: species or system ddY male mice; conditions: mouse, in vivo
Protocol: The following acute toxicity test was conducted on mice:
Animal: Five-week old ddY male mice (wt: 21-27 g) in groups of 6.
Method: The mice were starved overnight and the compound prepared in Example 6 was administered perorally in an amount of 0.1 ml/10 g body weight after it was suspended in 0.5% carboxymethyl cellulose sodium salt (CMC-Na). As a control, 0.5% CMC-Na solution was administered.

| Structure (SMILES) | Number of animals dying within 3 minutes after injection/Number of animals in test, Collagen [1] | Number of animals dying within 3 minutes after injection/Number of animals in test, ADP 2Na [2] | thrombolytic effects compared with Ticlopidine [2] | animals that died at the dosage levels used [3] | changes in the general condition of the mice [3] |
| --- | --- | --- | --- | --- | --- |
| Clc1cccc(-c2cnccn2)c1 [Example 4, 2-(3-chlorophenyl)pyrazine] | 6/10 | 5/10 |  |  |  |
| Clc1ccc(-c2cnccn2)cc1 [Example 1, 2-(4-chlorophenyl)pyrazine] | 2/8 | 4/9 | equal to or greater than the levels achieved by a known thrombolytic agent, Ticlopidine |  |  |
| COc1ccc(-c2cnccn2)cc1 [Example 3, 2-(4-methoxyphenyl)pyrazine] | 6/8 | 4/7 |  |  |  |
| Oc1ccc(-c2cnccn2)cc1 [Example 8, 2-(4-hydroxyphenyl)pyrazine] | 7/8 | 4/7 |  |  |  |
| Cc1ccc(-c2cnccn2)cc1 [Example 2, 2-(4-methylphenyl)pyrazine] | 7/8 | 3/7 |  |  |  |
| Clc1ccc(-c2cnccn2)cc1Cl [Example 6, 2-(3,4-dichlorophenyl)pyrazine] | 4/10 | 3/10 | equal to or greater than the levels achieved by a known thrombolytic agent, Ticlopidine | none of the animals treated with the compound of Example 6 died | No apparent changes were observed |
| Clc1ccccc1-c1cnccn1 [Example 7, 2-(2-chlorophenyl)pyrazine] | 6/9 | 5/10 |  |  |  |
| Clc1ccc(-c2cnccn2)c(Cl)c1 [Example 5, 2-(2,4-dichlorophenyl)pyrazine] | 4/10 | 6/10 |  |  |  |
